Results from ChEMBL document CHEMBL1817587, “DNA site-specific N3-adenine methylation targeted to estrogen receptor-positive cells” (Bioorg Med Chem, 2011).
Active and inactive are the calls of the source. The rule behind the calls is not given here.

Columns and labels:
MCF7 [1] = experiment: Cytotoxicity against human MCF7 cells at 500 uM after 16 hrs by MTT assay; format: functional, cell-based
Estrogen receptor = biological target: T1, Estrogen receptor (Homo sapiens, UniProt P03372); experiment: (§1) Binding affinity to estrogen receptor-alpha after 2 hrs by TR-FRET assay
T1 sequence (P03372 whole entry): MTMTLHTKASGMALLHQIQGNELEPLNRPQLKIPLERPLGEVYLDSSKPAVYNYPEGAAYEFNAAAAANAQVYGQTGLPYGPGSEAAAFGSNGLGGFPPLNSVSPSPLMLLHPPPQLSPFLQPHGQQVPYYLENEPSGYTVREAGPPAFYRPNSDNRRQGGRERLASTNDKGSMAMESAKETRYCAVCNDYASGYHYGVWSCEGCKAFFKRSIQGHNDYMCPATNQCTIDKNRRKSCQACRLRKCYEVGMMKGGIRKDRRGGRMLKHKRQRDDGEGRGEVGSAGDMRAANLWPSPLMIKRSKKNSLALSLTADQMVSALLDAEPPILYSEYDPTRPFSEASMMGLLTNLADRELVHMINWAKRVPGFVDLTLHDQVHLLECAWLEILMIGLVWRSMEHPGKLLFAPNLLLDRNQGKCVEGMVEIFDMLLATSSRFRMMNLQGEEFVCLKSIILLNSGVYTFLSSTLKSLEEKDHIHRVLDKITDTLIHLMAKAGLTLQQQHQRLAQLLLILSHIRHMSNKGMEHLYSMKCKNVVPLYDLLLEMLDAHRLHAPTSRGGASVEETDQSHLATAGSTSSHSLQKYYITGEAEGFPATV

[2] = biological target: T2, Estrogen receptor (Homo sapiens) (UniProt P03372); experiment: as §1
T2 sequence (whole entry): T1 sequence (P03372 whole entry)

Nucleic Acid [3] = experiment: Induction of DNA methylation at calf thymus DNA assessed as 3-MeA adduct level per mol of DNA after 24 hrs by reverse phase HPLC; format: nucleic-acid assay; settings: Bos taurus
MCF7 [4] = experiment: Ratio of Me-lex EC50 to compound EC50 for human MCF7 cells after 16 hrs by MTT assay; format: functional
Nucleic Acid [5] = experiment: Induction of DNA methylation at calf thymus DNA assessed as 3-MeA adduct level per mol of DNA at 50 uM after 24 hrs by reverse phase HPLC in presence of 100 uM netropsin; format: nucleic-acid assay; settings: Bos taurus
MCF7 [6] = experiment: Cytotoxicity against human MCF7 cells at 250 uM after 16 hrs by MTT assay pretreated with 250 uM fulvestrant; format: functional, cell-based
Nucleic Acid [7] = experiment: Induction of DNA methylation at calf thymus DNA assessed as 7-MeG adduct level per mol of DNA at 50 uM after 24 hrs by reverse phase HPLC in presence of 100 uM netropsin; format: nucleic-acid assay; settings: Bos taurus
Nucleic Acid [8] = experiment: Induction of DNA methylation at calf thymus DNA assessed as 7-MeG level at 500 uM after 24 hrs by reverse phase HPLC relative to methylmethane sufonate; format: nucleic-acid assay; settings: Bos taurus
Nucleic Acid [9] = experiment: Induction of DNA methylation at calf thymus DNA assessed as 7-MeG adduct level per mol of DNA at 50 uM after 24 hrs by reverse phase HPLC; format: nucleic-acid assay; settings: Bos taurus
Nucleic Acid [10] = experiment: Induction of DNA methylation at calf thymus DNA assessed as 3-MeA adduct level per mol of DNA at 50 uM after 24 hrs by reverse phase HPLC; format: nucleic-acid assay; settings: Bos taurus
Nucleic Acid [11] = experiment: Induction of DNA methylation at calf thymus DNA assessed as total adduct level at 500 uM after 24 hrs by reverse phase HPLC relative to methylmethane sufonate; format: nucleic-acid assay; settings: Bos taurus
MCF7 [12] = experiment: Ratio of EC50 for human MCF7 cells pretreated with 100 uM netropsin to compound EC50 for human MCF7 cells; format: functional
Nucleic Acid [13] = experiment: Induction of DNA methylation at calf thymus DNA assessed as 3-MeA level at 500 uM after 24 hrs by reverse phase HPLC relative to methylmethane sufonate; format: nucleic-acid assay; settings: Bos taurus
Nucleic Acid [14] = experiment: Induction of DNA methylation at calf thymus DNA assessed as 7-MeG adduct level per mol of DNA after 24 hrs by reverse phase HPLC; format: nucleic-acid assay; settings: Bos taurus
MCF7 [15] = experiment: Ratio of methylmethane sufonate EC50 to compound EC50 for human MCF7 cells after 16 hrs by MTT assay; format: functional
MCF7 [16] = experiment: Cytotoxicity against human MCF7 cells after 16 hrs by MTT assay pretreated with 100 uM netropsin; format: functional, cell-based
MCF7 [17] = experiment: Cytotoxicity against human MCF7 cells after 16 hrs by MTT assay; format: functional, cell-based; settings: MCF7, 16 h
Nucleic Acid [18] = experiment: Induction of DNA methylation at calf thymus DNA assessed as 3-MeA adduct level per mol of DNA at 5000 uM after 24 hrs by reverse phase HPLC; format: nucleic-acid assay; settings: Bos taurus
Nucleic Acid [19] = experiment: Induction of DNA methylation at calf thymus DNA assessed as 3-MeA adduct level per mol of DNA at 5000 uM after 24 hrs by reverse phase HPLC in presence of 100 uM netropsin; format: nucleic-acid assay; settings: Bos taurus
Nucleic Acid [20] = experiment: Induction of DNA methylation at calf thymus DNA assessed as 7-MeG adduct level per mol of DNA at 100 uM after 24 hrs by reverse phase HPLC in presence of 100 uM netropsin; format: nucleic-acid assay; settings: Bos taurus
Nucleic Acid [21] = experiment: Induction of DNA methylation at calf thymus DNA assessed as 7-MeG adduct level per mol of DNA at 100 uM after 24 hrs by reverse phase HPLC; format: nucleic-acid assay; settings: Bos taurus
Nucleic Acid [22] = experiment: Induction of DNA methylation at calf thymus DNA assessed as 3-MeA adduct level per mol of DNA at 100 uM after 24 hrs by reverse phase HPLC in presence of 100 uM netropsin; format: nucleic-acid assay; settings: Bos taurus

For Cn1cc(NC(=O)c2cc(NC(=O)CCS(C)(=O)=O)cn2C)cc1C(=O)NCCCC(=O)NCCCCCC[C@@H]1Cc2cc(O)ccc2[C@H]2CC[C@]3(C)[C@@H](O)CC[C@H]3[C@H]12, the Activity (MCF7 [1]) was “inactive”, the IC50 (Estrogen receptor) was 0.00111 µM and the RBA [2] was 51%.
For COS(=O)(=O)CCC(=O)Nc1cc(C(=O)Nc2cc(C(=O)NCCCC(=O)NCCCCCC[C@@H]3Cc4cc(O)ccc4[C@H]4CC[C@]5(C)[C@@H](O)CC[C@H]5[C@H]34)n(C)c2)n(C)c1, the Activity (Nucleic Acid [3]) was 86%, the “Ratio EC50” value (MCF7 [4]) was 1.5 and the Activity (Nucleic Acid [5]) was 167 µmol. The Activity (MCF7 [6]) was “inactive”, the Activity (Nucleic Acid [7]) was 279 µmol and the fold change (FC) (Nucleic Acid [8]) was 1.5. The Activity (Nucleic Acid [9]) was 280 µmol, the Activity (Nucleic Acid [10]) was 1760 µmol and the fold change (FC) (Nucleic Acid [11]) was 11. For the same molecule, the “Ratio EC50” value (MCF7 [12]) was 3, the fold change (FC) (Nucleic Acid [13]) was 98 and the Activity (Nucleic Acid [14]) was 14%. The “Ratio EC50” value (MCF7 [15]) was 20, the EC50 (MCF7 [16]) was 479 µM and the EC50 (MCF7 [17]) was 135 µM.
For COS(C)(=O)=O [METHANESULFONIC ACID METHYL ESTER], the Activity (Nucleic Acid [3]) was 9%, the Activity (Nucleic Acid [18]) was 1800 µmol and the Activity (Nucleic Acid [19]) was 1240 µmol. It also gave an EC50 (MCF7 [17]) of 2750 µM.
Work on CCCNC(=O)CCCNC(=O)c1cc(NC(=O)c2cc(NC(=O)CCS(=O)(=O)OC)cn2C)cn1C yielded an Activity (Nucleic Acid [3]) of 96%, a fold change (FC) (Nucleic Acid [8]) of 1.4 and a fold change (FC) (Nucleic Acid [11]) of 37. The Activity (Nucleic Acid [20]) was 614 µmol, the Activity (Nucleic Acid [21]) was 496 µmol and the Activity (Nucleic Acid [22]) was 657 µmol. It also gave a fold change (FC) (Nucleic Acid [13]) of 391, an Activity (Nucleic Acid [14]) of 90% and an EC50 (MCF7 [17]) of 214 µM.
